Assay results: the supplement of paper PMC10307832

Experiments:
Assay in all cases: relative viability (nuclei count vs DMSO), 5 days (fraction); higher = more cells survive
Doramapimod + Linsitinib = compound: Cc1ccc(-n2nc(C(C)(C)C)cc2NC(=O)Nc2ccc(OCCN3CCOCC3)c3ccccc23)cc1 [Doramapimod] + C[C@]1(O)C[C@@H](c2nc(-c3ccc4ccc(-c5ccccc5)nc4c3)c3c(N)nccn32)C1 [Linsitinib] (partner 1 µM)
Summary of the method: (§1)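 Relative viability equals treated-well nuclei counts divided by vehicle-well nuclei counts. Counts came from 4× images of lung cancer cell lines grown in 1536-well plates for 5 days after pin-tool dosing on the day after seeding. Dosing used one drug alone or a fixed anchor-drug dose plus five library-drug doses (not always all listed) in √10 steps, and values are medians of duplicate plates.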

RAF265 + Luminespib = compound: Cn1c(Nc2ccc(C(F)(F)F)cc2)nc2cc(Oc3ccnc(-c4ncc(C(F)(F)F)[nH]4)c3)ccc21 [RAF265] + CCNC(=O)c1noc(-c2cc(C(C)C)c(O)cc2O)c1-c1ccc(CN2CCOCC2)cc1 [Luminespib] (partner 0.01 µM)
Summary of the method: as §1

RAF265 + OSI-027 = compound: Cn1c(Nc2ccc(C(F)(F)F)cc2)nc2cc(Oc3ccnc(-c4ncc(C(F)(F)F)[nH]4)c3)ccc21 [RAF265] + COc1cccc2cc(-c3nc([C@H]4CC[C@H](C(=O)O)CC4)n4ncnc(N)c34)[nH]c12 [OSI-027] (partner 0.5 µM)
Summary of the method: as §1

RAF265 + Pemetrexed = compound: Cn1c(Nc2ccc(C(F)(F)F)cc2)nc2cc(Oc3ccnc(-c4ncc(C(F)(F)F)[nH]4)c3)ccc21 [RAF265] + Nc1nc2[nH]cc(CCc3ccc(C(=O)N[C@@H](CCC(=O)O)C(=O)O)cc3)c2c(=O)[nH]1 [Pemetrexed] (partner 0.2 µM)
Summary of the method: as §1

Row | Cell Line | relative viability (Doramapimod + Linsitinib; first compound 0.02 µM) | relative viability (Doramapimod + Linsitinib; first compound 0.06325 µM) | relative viability (Doramapimod + Linsitinib; first compound 0.2 µM) | relative viability (Doramapimod + Linsitinib; first compound 0.6325 µM) | relative viability (Doramapimod + Linsitinib; first compound 2 µM) | relative viability (RAF265 + Luminespib; first compound 0.01 µM) | relative viability (RAF265 + Luminespib; first compound 0.03162 µM) | relative viability (RAF265 + Luminespib; first compound 0.1 µM) | relative viability (RAF265 + Luminespib; first compound 0.3162 µM) | relative viability (RAF265 + Luminespib; first compound 1 µM) | relative viability (RAF265 + OSI-027; first compound 0.01 µM) | relative viability (RAF265 + OSI-027; first compound 0.03162 µM) | relative viability (RAF265 + OSI-027; first compound 0.1 µM) | relative viability (RAF265 + OSI-027; first compound 0.3162 µM) | relative viability (RAF265 + OSI-027; first compound 1 µM) | relative viability (RAF265 + Pemetrexed; first compound 0.01 µM) | relative viability (RAF265 + Pemetrexed; first compound 0.03162 µM) | relative viability (RAF265 + Pemetrexed; first compound 0.1 µM) | relative viability (RAF265 + Pemetrexed; first compound 0.3162 µM) | relative viability (RAF265 + Pemetrexed; first compound 1 µM)
1 | NCI-H1651 | 0.92 | 0.844 | 0.923 | 0.977 | 0.917 | 1 | 0.812 | 0.971 | 0.807 | 0.714 | 0.783 | 0.776 | 0.695 | 0.52 | 0.362 | 0.587 | 0.567 | 0.431 | 0.494 | 0.532
2 | NCI-H1666 | 0.871 | 0.883 | 0.847 | 0.781 | 0.738 | 1.11 | 1.01 | 1.1 | 1.05 | 0.977 | 0.89 | 0.716 | 0.774 | 0.739 | 0.598 | 0.787 | 0.782 | 0.904 | 0.888 | 0.754
3 | NCI-H1734 | 0.864 | 0.755 | 0.721 | 0.767 | 0.662 | 0.227 | 0.189 | 0.178 | 0.17 | 0.17 | 0.604 | 0.54 | 0.38 | 0.381 | 0.247 | 0.386 | 0.43 | 0.469 | 0.507 | 0.417
4 | NCI-H1755 | 0.982 | 1 | 1.02 | 1.05 | 0.996 | 0.627 | 0.45 | 0.351 | 0.262 | 0.398 | 0.689 | 0.636 | 0.597 | 0.455 | 0.303 | 0.771 | 0.361 | 0.503 | 0.519 | 0.497
5 | NCI-H1792 | 0.434 | 0.434 | 0.536 | 0.615 | 0.351 | 0.46 | 0.528 | 0.379 | 0.317 | 0.148 | 0.681 | 0.691 | 0.72 | 0.444 | 0.25 | 0.808 | 0.517 | 0.539 | 0.0889 | 0.118
6 | NCI-H1793 | 0.758 | 0.76 | 0.827 | 0.932 | 0.719 | 0.212 | 0.147 | 0.184 | – | 0.222 | 0.308 | 0.297 | 0.224 | – | 0.188 | 1.07 | 0.774 | 0.553 | 0.234 | 0.412
7 | NCI-H1915 | 1.1 | 1.17 | 1.1 | 1.12 | 1.09 | 0.819 | 0.728 | 0.616 | 0.258 | 0.188 | 0.674 | 0.492 | 0.339 | 0.217 | 0.176 | 0.463 | 0.419 | 0.486 | 0.406 | 0.361
8 | NCI-H1944 | 1.05 | 1.14 | 1.03 | 1.31 | 1.08 | 0.858 | 0.71 | 0.726 | 0.529 | 0.332 | 0.516 | 0.5 | 0.357 | 0.317 | 0.237 | 0.849 | 0.859 | 0.632 | 0.405 | 0.472
9 | NCI-H1975 | 1.07 | 0.956 | 0.885 | 0.98 | 0.926 | 0.244 | 0.272 | 0.199 | 0.197 | 0.12 | 0.682 | 0.601 | 0.348 | 0.261 | 0.178 | 0.307 | 0.256 | 0.234 | 0.203 | 0.19
10 | NCI-H1993 | 0.663 | 0.708 | 0.795 | 0.753 | 0.755 | 0.852 | 0.75 | 0.9 | 1.42 | 0.774 | 0.539 | 0.583 | 0.552 | 0.579 | 0.543 | 0.548 | 0.605 | 0.508 | 0.51 | 0.581
11 | NCI-H2009 | 1.21 | 1.23 | 1.3 | 1.23 | 1.16 | 1.05 | 0.95 | 0.975 | 1.03 | 0.883 | 0.581 | 0.414 | 0.328 | 0.365 | 0.318 | 1.01 | 0.955 | 1.02 | 0.965 | 0.885
12 | NCI-H2023 | 0.626 | 0.718 | 0.533 | 0.738 | 0.575 | 0.802 | 0.78 | 0.674 | 0.837 | 0.454 | 0.387 | 0.358 | 0.33 | 0.252 | 0.318 | 0.21 | 0.251 | 0.21 | 0.251 | 0.236
13 | NCI-H2085 | 0.898 | 0.939 | 0.873 | 0.876 | 0.864 | 0.493 | 0.403 | 0.492 | 0.428 | 0.427 | 0.948 | 0.68 | 0.841 | 0.552 | 0.83 | 1.09 | 0.768 | 0.938 | 0.806 | 0.903
14 | NCI-H2087 | 0.976 | 1.13 | 0.939 | 0.962 | 0.951 | 0.136 | 0.209 | 0.214 | 0.162 | 0.16 | 0.653 | 0.426 | 0.426 | 0.193 | 0.334 | 0.599 | 0.669 | 0.549 | 0.649 | 0.543
15 | NCI-H2126 | 0.668 | 0.678 | 0.642 | 0.693 | 0.625 | 0.918 | 0.87 | 0.908 | 0.628 | 0.654 | 0.77 | 0.724 | 0.718 | 0.582 | 0.437 | 0.703 | 0.669 | 0.65 | 0.605 | 0.554
16 | NCI-H2228 | 0.762 | 0.449 | 0.632 | 0.65 | 0.464 | 0.191 | 0.118 | 0.186 | 0.126 | 0.0971 | 0.499 | 0.476 | 0.344 | 0.184 | 0.121 | 0.325 | 0.353 | 0.303 | 0.297 | 0.268
